# Target: T1, human CRF1 receptor (Homo sapiens, UniProt P34998)
# T1 construct: expressed in transfected cells; host or cells: CHO cells (membrane fraction)
# T1 sequence (P34998 24-415): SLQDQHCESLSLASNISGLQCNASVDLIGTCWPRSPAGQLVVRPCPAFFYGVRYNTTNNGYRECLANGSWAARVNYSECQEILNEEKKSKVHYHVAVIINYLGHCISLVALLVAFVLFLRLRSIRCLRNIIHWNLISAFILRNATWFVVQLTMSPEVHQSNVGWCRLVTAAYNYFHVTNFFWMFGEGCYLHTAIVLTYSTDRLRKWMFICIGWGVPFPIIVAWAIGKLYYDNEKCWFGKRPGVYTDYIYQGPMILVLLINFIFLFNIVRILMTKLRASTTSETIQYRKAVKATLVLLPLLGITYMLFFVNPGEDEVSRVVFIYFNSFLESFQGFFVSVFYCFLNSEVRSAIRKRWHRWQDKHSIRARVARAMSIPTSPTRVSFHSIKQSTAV
# Test: Measurement of CRF binding inhibitory rate (125I-CRF receptor binding, CHO cellular membrane fraction)
# Details: 1.5 h, at the presence of 1 μM of a test compound; human CRF1 receptor expressing CHO cellular membrane fraction, 50 pM 125I-CRF; read-out: Binding inhibitory rates (% inhibition)
# Experimental: A receptor binding experiment was carried out using a human CRF1 receptor expressing CHO cellular membrane fraction and ovine CRF, [^125I]-tyr^0(^125I-CRF). 1000 nM of a test compound was incubated with 1 μg of human CRF receptor expressing CHO cellular membrane fraction and 50 pM of ^125I-CRF in a binding assay buffer (50 mM Tris-HCl, 5 mM EDTA, 10 mM MgCl2, 0.05% CHAPS, 0.1% BSA, 0.5 mM PMSF, 0.1 μg/mL pepstatin, 20 μg/mL leupeptin, pH 7.5). In addition, for measuring nonspecific binding (NSB), 0.1 μM unlabelled human Urocortin was incubated with 5 μg of human CRF receptor expressing CHO cellular membrane fraction and 50 pM of ^125I-CRF in a binding assay buffer. After a binding reaction was carried out at room temperature for 1.5 hr, the membrane was entrapped on a glass filter (UniFilter plate GF-C/Perkin Elmer) by suction filtration using a cell harvester (Perkin Elmer), and washed with ice-cooled 50 mM Tris-HCl (pH 7.5). After drying the glass filter, a liquid scintillation cocktail (Microscinti 0, Perkin Elmer) was added, and the radioactivity of ^125I-CRF remaining on a glass filter was measured using Topcount (Perkin Elmer).
# (TB-SB)/(TB-NSB)×100 (SB: radioactivity when a compound is added, TB: maximum binding radioactivity, NSB: nonspecific binding radioactivity) were calculated to obtain binding inhibitory rates under the range of the presence from 0.05 nM to 10 μM of each compound. The IC50 values were calculated by using GraphPad Prism software.
row,SMILES,inhibition at 1 µM [%]
1,"CCC(OC(C)=O)c1ccc(Cl)c2nc3n(c12)CCCN3c1ccc(Cl)cc1Cl (racemic) [Example 238, 1-[9-Chloro-1-(2,4-dichlorophenyl)-1,2,3,4-tetrahydropyrimido[1,2-a]benzimidazol-6-yl]propyl acetate]",98
2,"CCC(OC(C)=O)c1ccc(Cl)c2nc3n(c12)CCCN3c1ccc(OC)nc1C (racemic) [Example 265, 1-[9-Chloro-1-(6-methoxy-2-methylpyridin-3-yl)-1,2,3,4-tetrahydropyrimido[1,2-a]benzimidazol-6-yl]propyl acetate]",89
3,"CCC(OC(C)=O)c1ccc(Cl)c2nc3n(c12)CCCN3c1ccc(Cl)cc1Cl (single isomer, unassigned; (-)) [Example 239, (−)-1-[9-Chloro-1-(2,4-dichlorophenyl)-1,2,3,4-tetrahydropyrimido[1,2-a]benzimidazol-6-yl]propyl acetate]",90
4,"CCC(OC(C)=O)c1ccc(Cl)c2nc3n(c12)CCCN3c1ccc(OC)nc1C (single isomer, unassigned; (-)) [Example 266, (−)-1-[9-Chloro-1-(6-methoxy-2-methylpyridin-3-yl)-1,2,3,4-tetrahydropyrimido[1,2-a]benzimidazol-6-yl]propyl acetate]",82
5,"CCC(CC)c1ccc(Cl)c2nc3n(c12)CCCCN3c1cnc(N(C)C)cc1C [Example 25, 5-[10-Chloro-7-(1-ethylpropyl)-2,3,4,5-tetrahydro-1H-[1,3]diazepino[1,2-a]benzimidazol-1-yl]-N,N,4-trimethylpyridin-2-amine]",91
6,"CCC(O)c1ccc(Cl)c2nc3n(c12)CCCN3c1ccc(Cl)cc1Cl (stereo not drawn) [Example 112, 1-[9-Chloro-1-(2,4-dichlorophenyl)-1,2,3,4-tetrahydropyrimido[1,2-a]benzimidazol-6-yl]propan-1-ol]",95
7,"COc1ccc(N2CCCn3c2nc2c(Cl)ccc(C(O)(C4CC4)C4CC4)c23)c(C)n1 [Example 276, [9-Chloro-1-(6-methoxy-2-methylpyridin-3-yl)-1,2,3,4-tetrahydropyrimido[1,2-a]benzimidazol-6-yl](dicyclopropyl)methanol]",94
8,"CCN(CC)c1ccc(F)c2nc3n(c12)CCCN3c1ccc(Cl)cc1Cl [Example 365, 1-(2,4-Dichlorophenyl)-N,N-diethyl-9-fluoro-1,2,3,4-tetrahydropyrimido[1,2-a]benzimidazol-6-amine]",95
9,"COc1ccc(C(O)(C2CC2)C2CC2)c2c1nc1n2CCCN1c1ccc(Cl)cc1Cl [Example 369, Dicyclopropyl[1-(2,4-dichlorophenyl)-9-methoxy-1,2,3,4-tetrahydropyrimido[1,2-a]benzimidazol-6-yl]methanol]",96
10,"Cc1cc(Cl)cc(Cl)c1N1CCn2c1nc1c(Cl)ccc(C(O)(C3CC3)C3CC3)c12 [Example 426, [8-Chloro-1-(2,4-dichloro-6-methylphenyl)-2,3-dihydro-1H-imidazo[1,2-a]benzimidazol-5-yl](dicyclopropyl)methanol]",98
11,"CCC(CCO)c1ccc(Cl)c2nc3n(c12)CCCN3c1ccc(Cl)cc1Cl (stereo not drawn) [Example 450, 3-[9-Chloro-1-(2,4-dichlorophenyl)-1,2,3,4-tetrahydropyrimido[1,2-a]benzimidazol-6-yl]pentan-1-ol]",98

# Same assay, conditions: at the presence of 1 μM of a test compound; human CRF1 receptor expressing CHO cellular membrane fraction, 50 pM 125I-CRF
row,SMILES,Binding inhibitory rates (% inhibition) [%]
1,"CCC(OC(C)=O)c1ccc(Cl)c2nc3n(c12)CCCN3c1ccc(Cl)cc1Cl (single isomer, unassigned; (+)) [Example 240, (+)-1-[9-Chloro-1-(2,4-dichlorophenyl)-1,2,3,4-tetrahydropyrimido[1,2-a]benzimidazol-6-yl]propyl acetate]",97
2,"CCC(OC(C)=O)c1ccc(Cl)c2nc3n(c12)CCCN3c1ccc(OC)nc1C (single isomer, unassigned; (+)) [Example 267, (+)-1-[9-Chloro-1-(6-methoxy-2-methylpyridin-3-yl)-1,2,3,4-tetrahydropyrimido[1,2-a]benzimidazol-6-yl]propyl acetate]",96
3,"CCC(O)c1ccc(Cl)c2nc3n(c12)CCCN3c1ccc(Cl)cc1Cl (single isomer, unassigned; (+)) [Example 439, (+)-1-[9-Chloro-1-(2,4-dichlorophenyl)-1,2,3,4-tetrahydropyrimido[1,2-a]benzimidazol-6-yl]propan-1-ol]",84

# Same assay, conditions: human CRF1 receptor expressing CHO cellular membrane fraction, 50 pM 125I-CRF, 0.05 nM to 10 μM of compound; read-out: IC50 values (CRF binding inhibition)
row,SMILES,IC50 [nM]
1,"COc1ccc(N2CCCn3c2nc2c(Cl)ccc(C(OCC(F)(F)F)C4CC4)c23)c(Cl)c1 (stereo not drawn) [Example 468, 9-Chloro-1-(2-chloro-4-methoxyphenyl)-6-[cyclopropyl(2,2,2-trifluoroethoxy)methyl]-1,2,3,4-tetrahydropyrimido[1,2-a]benzimidazole]",< 1000
